Laboratory results: patent US12269800B2, “Delivery of therapeutic alkaloid compounds” (priority 2021, dated 2025)
Where two headings read alike, the source gives them in different places.

What was measured:
[1] = Hydrolysis Assay of Example A2, Condition 1 (SGF with pepsin, pH 1.5, 37° C.); type: physicochemical; conditions: SGF with pepsin pH 1.5, 37° C., 0.5 mM
[2] = type: physicochemical; conditions: DI water, 25° C., 0.5 mM
[3] = Plasma Stability Assay of Example A3, mouse plasma; conditions: % of prodrug compound remaining, 37° C.
[4] = Plasma Stability Assay of Example A3, human plasma; conditions: % of prodrug compound remaining, 37° C.
[5] = 5 µM
Method: 50 uL aliquots of positive controls and test compounds spiked into rat or human plasma (n=2) were added to a pre-warmed plate (37° C.) and shaken at 50 rpm. At each respective time point, the reaction was stopped by adding 500 μL of acetonitrile containing internal standards (100 nM aprozolam, 200 nM caffeine, 100 nM tolbutamide). All samples were vortexed for 10 minutes, followed by centrifugation at 3,220 g for 30 minutes to precipitate proteins. 100 μL of the supernatant is transferred to a new plate. The supernatant will be diluted with ultrapure water according to the LC-MS signal response and peak shape.

[6] = 5 µM; remark: listed apart in the source

Row | Compound | Mouse Plasma Prodrug (%) ([3]; 0.0 min) | Mouse Plasma Prodrug (%) ([3]; 15 min) | Mouse Plasma Prodrug (%) ([3]; 30 min) | Mouse Plasma Prodrug (%) ([3]; 60 min) | Mouse Plasma Prodrug (%) ([3]; 120 min) | Mouse Plasma Prodrug (%) ([3]; 240 min) | Human Plasma Prodrug (%) ([4]; 0.0 min) | Human Plasma Prodrug (%) ([4]; 15 min) | Human Plasma Prodrug (%) ([4]; 30 min) | Human Plasma Prodrug (%) ([4]; 60 min) | Human Plasma Prodrug (%) ([4]; 120 min) | Human Plasma Prodrug (%) ([4]; 240 min) | Rat Plasma Prodrug (%) ([5]; 0 min) | Rat Plasma Prodrug (%) ([5]; 10 min) | Rat Plasma Prodrug (%) ([5]; 30 min) | Rat Plasma Prodrug (%) ([5]; 60 min) | Rat Plasma Prodrug (%) ([5]; 120 min) | Rat Plasma Prodrug (%) ([5]; 240 min) | Human Plasma Prodrug (%) ([6]; 0 min) | Human Plasma Prodrug (%) ([6]; 10 min) | also measured
1 | COc1ccc([C@]23CCN(C)[C@H]2CC2(CC3)OCC(COc3ccccc3OC)O2)cc1OC (stereo partly drawn) [Compound 216, (3′aS,7′aS)-3′a-(3,4-dimethoxyphenyl)-4-[(2-methoxyphenoxy)methyl]-1′-methyl-spiro[1,3-dioxolane-2,6′-2,3,4,5,7,7a-hexahydroindole]] |  |  |  |  |  |  |  |  |  |  |  |  |  |  |  |  |  |  |  |  | Condition 1 Conversion (%) ([1]; time 1 min): 0%; Condition 1 Conversion (%) ([1]; time 5 min): 0%; Condition 1 Conversion (%) ([1]; time 30 min): 0%; Condition 1 Conversion (%) ([1]; time 1 h): 0%; Condition 1 Conversion (%) ([1]; time 4 h): 0%; Condition 1 Conversion (%) ([1]; time 24 h): 0%; Condition 2 Conversion (%) ([2]; time 1 min): 0%; Condition 2 Conversion (%) ([2]; time 5 min): 0%; Condition 2 Conversion (%) ([2]; time 30 min): 0%; Condition 2 Conversion (%) ([2]; time 1 h): 0%; Condition 2 Conversion (%) ([2]; time 4 h): 0%; Condition 2 Conversion (%) ([2]; time 24 h): 0%
2 | COc1ccc([C@@]23CCC(=NNC(=O)c4ccc(F)cc4)C[C@@H]2N(C)CC3)cc1OC [Compound 220, N-[[(3aS)-3a-(3,4-dimethoxyphenyl)-1-methyl-2,3,4,5,7,7a-hexahydroindol-6-ylidene]amino]-4-fluoro-benzamide] |  |  |  |  |  |  |  |  |  |  |  |  |  |  |  |  |  |  |  |  | Condition 2 Conversion (%) ([2]; time 1 min): 20.02%; Condition 2 Conversion (%) ([2]; time 5 min): 21.53%; Condition 2 Conversion (%) ([2]; time 30 min): 22.27%; Condition 2 Conversion (%) ([2]; time 1 h): 55.36%; Condition 2 Conversion (%) ([2]; time 4 h): 88.25%; Condition 2 Conversion (%) ([2]; time 24 h): 89.93%
3 | COc1ccc([C@@]23CCC(=NNC(=O)CCCC(=O)O)C[C@@H]2N(C)CC3)cc1OC [Compound 246, 5-(2-((3aS,7aS)-3a-(3,4-dimethoxyphenyl)-1-methyloctahydro-6H-indol-6-ylidene)hydrazineyl)-5-oxopentanoic acid] |  |  |  |  |  |  |  |  |  |  |  |  |  |  |  |  |  |  |  |  | Condition 1 Conversion (%) ([1]; time 1 min): 100%; Condition 1 Conversion (%) ([1]; time 5 min): 100%; Condition 1 Conversion (%) ([1]; time 30 min): 100%; Condition 1 Conversion (%) ([1]; time 1 h): 100%; Condition 1 Conversion (%) ([1]; time 4 h): 100%; Condition 1 Conversion (%) ([1]; time 24 h): 100%; Condition 2 Conversion (%) ([2]; time 1 min): 40%; Condition 2 Conversion (%) ([2]; time 5 min): 50%; Condition 2 Conversion (%) ([2]; time 30 min): 60%; Condition 2 Conversion (%) ([2]; time 1 h): 75%; Condition 2 Conversion (%) ([2]; time 4 h): 100%; Condition 2 Conversion (%) ([2]; time 24 h): 100%
4 | COc1ccc([C@@]23CCC(OC(=O)c4ccc(F)cc4)=C[C@@H]2N(C)CC3)cc1OC [Compound 353, (3aS,7aS)-3a-(3,4-dimethoxyphenyl)-1-methyl-2,3,3a,4,5,7a-hexahydro-1H-indol-6-yl 4-fluorobenzoate] | 100% | 0% | 0% | 0% | 0% | 0% | 100% |  |  |  |  |  |  |  |  |  |  |  |  |  | 
5 | COc1ccc([C@@]23CCC(OC(=O)c4ccc(C#N)cc4)=C[C@@H]2N(C)CC3)cc1OC [Compound 354, (3aS,7aS)-3a-(3,4-dimethoxyphenyl)-1-methyl-2,3,3a,4,5,7a-hexahydro-1H-indol-6-yl 4-cyanobenzoate] | 100% | 5% | 7% | 5% | 4% | 0% | 100% | 93% | 72% | 42% | 13% | 1% |  |  |  |  |  |  |  |  | 
6 | COc1ccc([C@@]23CCC(OC(=O)c4ccc(N(C)C)cc4)=C[C@@H]2N(C)CC3)cc1OC [Compound 355, [(3aS,7aS)-3a-(3,4-dimethoxyphenyl)-1-methyl-3,4,5,7a-tetrahydro-2H-indol-6-yl] 4-(dimethylamino)benzoate] | 100.0% |  |  | 9.9% | 0.5% | 0.0% | 100.0% | >99% | >99% | >99% | >99% |  |  |  |  |  |  |  |  |  | 
7 | COc1ccc([C@@]23CCC(OC(=O)c4ccc(C(C)C)cc4)=C[C@@H]2N(C)CC3)cc1OC [Compound 371, (3aS,7aS)-3a-(3,4-dimethoxyphenyl)-1-methyl-2,3,3a,4,5,7a-hexahydro-1H-indol-6-yl 4-isopropylbenzoate] | 100% | 10% | 0% | 0% | 0% | 0% | 100% | 99% | 92% | 87% | 78% | 27% | 100.0% | 5.0% | 0.2% | 0.1% | 0.0% | 0.0% | 100.0% | >99% | Human Plasma Prodrug (%) ([6]; 30 min): 94.4%; Human Plasma Prodrug (%) ([6]; 60 min): 90.7%; Human Plasma Prodrug (%) ([6]; 120 min): 91.3%; Human Plasma Prodrug (%) ([6]; 240 min): 78.0%
8 | COc1ccc([C@@]23CCC(OC(=O)c4c(C)cccc4C)=C[C@@H]2N(C)CC3)cc1OC [Compound 372, (3aS,7aS)-3a-(3,4-dimethoxyphenyl)-1-methyl-2,3,3a,4,5,7a-hexahydro-1H-indol-6-yl 2,6-dimethylbenzoate] | 100% | 92% | 91% | 88% | 73% | 64% | 100% | 97% | 99% | 94% | 81% | 38% | 100.0% | >99% | >99% | >99% | 98.4% | >99% | 100.0% | >99% | Human Plasma Prodrug (%) ([6]; 30 min): >99%; Human Plasma Prodrug (%) ([6]; 60 min): >99%; Human Plasma Prodrug (%) ([6]; 120 min): >99%; Human Plasma Prodrug (%) ([6]; 240 min): >99%
9 | COc1ccc([C@@]23CCC(OC(=O)c4cccc(C)c4C)=C[C@@H]2N(C)CC3)cc1OC [Compound 373, (3aS,7aS)-3a-(3,4-dimethoxyphenyl)-1-methyl-2,3,3a,4,5,7a-hexahydro-1H-indol-6-yl 2,3-dimethylbenzoate] | 100% | 82% | 64% | 41% | 12% | 1% | 100% |  |  |  |  |  | 100.0% | 81.0% | 58.4% | 26.8% | 5.2% | 1.3% | 100.0% | 96.3% | Human Plasma Prodrug (%) ([6]; 30 min): >99%; Human Plasma Prodrug (%) ([6]; 60 min): 94.8%; Human Plasma Prodrug (%) ([6]; 120 min): 89.9%; Human Plasma Prodrug (%) ([6]; 240 min): 96.3%
10 | COc1ccc([C@@]23CCC(OC(=O)c4cccc(C)c4)=C[C@@H]2N(C)CC3)cc1OC [Compound 374, (3aS,7aS)-3a-(3,4-dimethoxyphenyl)-1-methyl-2,3,3a,4,5,7a-hexahydro-1H-indol-6-yl 3-methylbenzoate] | 100% | 33% | 4% | 0% | 0% | 0% | 100% | 98% | 88% | 84% | 62% | 11% | 100.0% | 9.7% | 0.3% | 0.1% | 0.0% | 0.0% | 100.0% | >99% | Human Plasma Prodrug (%) ([6]; 30 min): >99%; Human Plasma Prodrug (%) ([6]; 60 min): >99%; Human Plasma Prodrug (%) ([6]; 120 min): >99%; Human Plasma Prodrug (%) ([6]; 240 min): 95.4%
11 | COc1ccc([C@@]23CCC(OC(=O)c4cccc(C(C)(C)C)c4)=C[C@@H]2N(C)CC3)cc1OC [Compound 375, (3aS,7aS)-3a-(3,4-dimethoxyphenyl)-1-methyl-2,3,3a,4,5,7a-hexahydro-1H-indol-6-yl 3-(tert-butyl)benzoate] | 100% | 11% | 2% | 0% | 0% | 0% | 100% | >99% | >99% | 97% | 57% | 26% |  |  |  |  |  |  |  |  | 
